Laboratory results from patent US8574563B2 (Bristol-Myers Squibb Company, priority 2006, dated 2013).

Test system: HCV 1b-377-neo replicon cells
Assay: HCV replicon assay, HCV 1b-377-neo replicon cells (1b FRET)
Format: cell-based, Hepatitis C virus genotype 1b
Settings: Hepatitis C virus, HCV 1b-377-neo replicon cells; HCV 1b genotype; read-out: EC50 range against HCV 1b (Table 2, Range)
Summary of the method: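 Compounds were tested in genotype 1b subgenomic replicon cells carrying a neomycin marker, alongside a matched replicon line with an NS5A Y2065H substitution that confers resistance to a reference NS5A inhibitor.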

| Compound | EC50 |
| --- | --- |
| COC(=O)N[C@@H](C)C(=O)N1CCC[C@H]1c1ncc(-c2ccc(-c3ccc(-c4cnc([C@@H]5CCCN5C(=O)[C@H]5CCCC[C@H]5NC(=O)OC)[nH]4)cc3)cc2)[nH]1 [cj-96, methyl ((1R,2S)-2-(((2S)-2-(5-(4′-(2-((2S)-1-(N-(methoxycarbonyl)-L-alanyl)-2-pyrrolidinyl)-1H-imidazol-5-yl)-4-biphenylyl)-1H-imidazol-2-yl)-1-pyrrolidinyl)carbonyl)cyclohexyl)carbamate] | 0.001 to 0.999 nM |
| CCN(CC)[C@H]1CC[C@@H](C(=O)N2CCC[C@H]2c2ncc(-c3ccc(-c4ccc(-c5cnc([C@@H]6CCCN6C(=O)[C@H]6CCCC[C@H]6NC(=O)OC)[nH]5)cc4)cc3)[nH]2)CC1 [cj-97, methyl ((1R,2S)-2-(((2S)-2-(5-(4′-(2-((2S)-1-((cis-4-(diethylamino)cyclohexyl)carbonyl)-2-pyrrolidinyl)-1H-imidazol-5-yl)-4-biphenylyl)-1H-imidazol-2-yl)-1-pyrrolidinyl)carbonyl)cyclohexyl)carbamate] | 0.001 to 0.999 nM |
| COC(=O)N[C@@H]1CCCC[C@@H]1C(=O)N1CCC[C@H]1c1ncc(-c2ccc(-c3ccc(-c4cnc([C@@H]5CCCN5C(=O)[C@H](NC(C)=O)c5ccccc5)[nH]4)cc3)cc2)[nH]1 [cj-98, methyl ((1R,2S)-2-(((2S)-2-(5-(4′-(2-((2S)-1-((2R)-2-acetamido-2-phenylacetyl)-2-pyrrolidinyl)-1H-imidazol-5-yl)-4-biphenylyl)-1H-imidazol-2-yl)-1-pyrrolidinyl)carbonyl)cyclohexyl)carbamate] | 0.001 to 0.999 nM |
| COC(=O)N[C@@H](Cc1c[nH]c2ccccc12)C(=O)N1CCC[C@H]1c1ncc(-c2ccc(-c3ccc(-c4cnc([C@@H]5CCCN5C(=O)[C@@H](NC(=O)OC)C(C)C)[nH]4)cc3)cc2)[nH]1 [cj-99, methyl ((1S)-1-(((2S)-2-(5-(4′-(2-((2S)-1-((2S)-3-(1H-indol-3-yl)-2-((methoxycarbonyl)amino)propanoyl)-2-pyrrolidinyl)-1H-imidazol-5-yl)-4-biphenylyl)-1H-imidazol-2-yl)-1-pyrrolidinyl)carbonyl)-2-methylpropyl)carbamate] | 0.001 to 0.999 nM |
| COC(=O)N[C@@H](Cc1c[nH]c2ccccc12)C(=O)N1CCC[C@H]1c1ncc(-c2ccc(-c3ccc(-c4cnc([C@@H]5CCCN5C(=O)[C@@H](NC(=O)OC)[C@@H](C)OC)[nH]4)cc3)cc2)[nH]1 [cj-100, methyl ((1S)-1-(1H-indol-3-ylmethyl)-2-((2S)-2-(5-(4′-(2-((2S)-1-((2S,3R)-3-methoxy-2-((methoxycarbonyl)amino)butanoyl)-2-pyrrolidinyl)-1H-imidazol-5-yl)-4-biphenylyl)-1H-imidazol-2-yl)-1-pyrrolidinyl)-2-oxoethyl)carbamate] | 0.001 to 0.999 nM |
| CCN(CC)[C@@H](C(=O)N1CCC[C@H]1c1ncc(-c2ccc(-c3ccc(-c4cnc([C@@H]5CCCN5C(=O)[C@H](Cc5c[nH]c6ccccc56)NC(=O)OC)[nH]4)cc3)cc2)[nH]1)c1ccccc1 [cj-101, methyl ((1S)-2-((2S)-2-(5-(4′-(2-((2S)-1-((2R)-2-(diethylamino)-2-phenylacetyl)-2-pyrrolidinyl)-1H-imidazol-5-yl)-4-biphenylyl)-1H-imidazol-2-yl)-1-pyrrolidinyl)-1-(1H-indol-3-ylmethyl)-2-oxoethyl)carbamate] | 0.001 to 0.999 nM |
| COC(=O)N[C@@H](C)C(=O)N1CCC[C@H]1c1ncc(-c2ccc(-c3ccc(-c4cnc([C@@H]5CCCN5C(=O)[C@H](Cc5c[nH]c6ccccc56)NC(=O)OC)[nH]4)cc3)cc2)[nH]1 [cj-102, methyl ((1S)-2-((2S)-2-(5-(4′-(2-((2S)-1-((2S)-3-(1H-indol-3-yl)-2-((methoxycarbonyl)amino)propanoyl)-2-pyrrolidinyl)-1H-imidazol-5-yl)-4-biphenylyl)-1H-imidazol-2-yl)-1-pyrrolidinyl)-1-methyl-2-oxoethyl)carbamate] | 0.001 to 0.999 nM |
